# Source: patent EP0889886B1, “NOVEL PHENANTHRIDINES SUBSTITUTED IN THE 6 POSITION” (ALTANA Pharma AG, priority 1996, dated 1997)
# Where a name gives a salt, the structure may show the parent alone.
# System: PDE IV
# Experiment: Inhibition of PDE IV activity (method of Bauer and Schwabe, adapted to microtiter plates)
# Assay type: biochemical
# Conditions: Hemmung der PDE IV-Aktivität
# Method: Hierbei erfolgt im ersten Schritt die PDE-Reaktion. In einem zweiten Schritt wird das entstandene 5'-Nukleotid durch eine 5'-Nukleotidase des Schlangengiftes von Crotalus Atrox zum ungeladenen Nukleosid gespalten. Im dritten Schritt wird das Nukleosid auf lonenaustauschsäulen vom verbliebenen geladenen Substrat getrennt. Die Säulen werden mit 2 ml 30 mM Ammoniumformiat (pH 6,0) direkt in Minivials eluiert, in die noch 2 ml Szintillatorflüssigkeit zur Zählung gegeben wird.
row,Compound,-log IC50
1,"COc1cc2c(cc1OC)[C@H]1CCCC[C@H]1N=C2c1ccc(NS(=O)(=O)c2ccc(C)cc2)cc1 (racemic) [Verbindung 1, (+/-)-cis-8,9-Dimethoxy-6-(4-p-toluolsulfonamidophenyl)-1,2,3,4,4a,10b-hexahydrophenanthridin]",7.73
2,"CCOc1cc2c(cc1OCC)[C@H]1CCCC[C@H]1N=C2c1ccc(NS(=O)(=O)c2ccc(C)cc2)cc1 (racemic) [Verbindung 2, (+/-)-cis-8,9-Diethoxy-6-(4-p-toluolsulfonamidophenyl)-1,2,3,4,4a,10b-hexahydrophenanthridin]",8.39
3,"COc1cc2c(cc1OC1CCCC1)[C@H]1CCCC[C@H]1N=C2c1ccc(NS(=O)(=O)c2ccc(C)cc2)cc1 (racemic) [Verbindung 3, (+/-)-cis-9-Cyclopentyloxy-8-methoxy-6-(4-p-toluolsulfonamidophenyl)-1,2,3,4,4a,10bhexahydrophenanthridin]",7.76
4,"COc1cc2c(cc1OC1CCCC1)C(c1ccc(NS(=O)(=O)c3ccc(C)cc3)cc1)=N[C@@H]1CCCC[C@H]21 (racemic) [Verbindung 4, (+/-)-cis-8-Cyclopentyloxy-9-methoxy-6-(4-p-toluolsulfonamidophenyl)-1,2,3,4,4a,10bhexahydrophenanthridin]",6.12
5,"COc1cc2c(cc1OC)[C@@H]1CCCC[C@@H]1N=C2c1ccc([N+](=O)[O-])cc1 (racemic) [Verbindung 5, (+/-)-cis-8,9-Dimethoxy-6-(4-nitrophenyl)-1,2,3,4,4a,10b-hexahydrophenanthridin]",7.22
6,"COc1cc2c(cc1OC)[C@H]1CCCC[C@H]1N=C2c1c(Cl)cccc1Cl (racemic) [Verbindung 6, (+/-)-cis-8,9-Dimethoxy-6-(2,6-dichlorphenyl)-1,2,3,4,4a,10b-hexahydrophenanthridin]",6.77
7,"COc1ccc(C2=N[C@H]3CCCC[C@H]3c3cc(OC)c(OC)cc32)cc1OC (racemic) [Verbindung 7, (+/-)-cis-8,9-Dimethoxy-6-(3,4-dimethoxyphenyl)-1,2,3,4,4a,10b-hexahydrophenanthridin]",6.44
8,"COc1cc2c(cc1OC)[C@H]1CC(C)=C(C)C[C@H]1N=C2c1ccc(NS(=O)(=O)c2ccc(C)cc2)cc1 (racemic) [Verbindung 8, (+/-)-cis-8,9-Dimethoxy-2,3-dimethyl-6-(4-p-toluolsulfonamidophenyl)-1,4,4a,10b-tetrahydrophenanthridin]",6.91
9,"COc1cc2c(cc1OC)C1CCCCC1N=C2c1ccc(NS(=O)(=O)c2ccc(C)cc2)cc1 (racemic) [Verbindung 9, (+/-)-trans-8,9-Dimethoxy-6-(4-p-toluolsulfonamidophenyl)-1,2,3,4,4a,10b-hexahydrophenanthridin-hydrochtorid]",6.17
10,"COc1cc2c(cc1OC)C1CC=CCC1N=C2c1ccc(NS(=O)(=O)c2ccc(C)cc2)cc1 (racemic) [Verbindung 10, (+/-)-trans-8,9-Dimethoxy-6-(4-p-toluolsulfonamidophenyl)-1,4,4a,10b-tetrahydrophenanthridin-hydrochlorid]",6.10
11,"COc1cc2c(cc1OC)C1C3CCC(CC3)C1N=C2c1ccc(NS(=O)(=O)c2ccc(C)cc2)cc1 (racemic) [Verbindung 12, (+/-)-trans-8,9-Dimethoxy-1,4-ethano-6-(4-p-toluolsulfonamidophenyl)-1,2,3,4,4a,10bhexahydrophenanthridin]",5.77
12,"CCOc1cc2c(cc1OCC)[C@@H]1CCCC[C@@H]1N=C2c1ccc(OC(C)=O)cc1 (racemic) [Verbindung 13, (+/-)-cis-6-(4-Acetoxyphenyl)-8,9-diethoxy-1,2,3,4,4a,10b-hexahydrophenanthridin]",8.43
13,"CCOc1cc2c(cc1OCC)[C@@H]1CCCC[C@@H]1N=C2c1ccc(Cc2ccccc2)cc1 (racemic) [Verbindung 14, (+/-)-cis-6-(4-Benzylphenyl)-8,9-diethoxy-1,2,3,4,4a,10b-hexahydrophenanthridin]",8.08
14,"CCOc1cc2c(cc1OCC)[C@@H]1CCCC[C@@H]1N=C2c1ccc(-c2ccccc2)cc1 (racemic) [Verbindung 15, (+/-)-cis-6-Biphenyl-8,9-diethoxy-1,2,3,4,4a,10b-hexahydrophenanthridin]",7.98
15,"CCOc1cc2c(cc1OCC)[C@H]1CCCC[C@H]1N=C2c1ccc(F)cc1 (racemic) [Verbindung 16, (+/-)-cis-8,9-Diethoxy-6-(4-fluorphenyl)-1,2,3,4,4a,10b-hexahvdrophenanthridin]",7.93
16,"CCOc1cc2c(cc1OCC)[C@H]1CCCC[C@H]1N=C2c1ccc(C(F)(F)F)cc1 (racemic) [Verbindung 17, (+/-)-cis-8,9-Diethoxy-7-(4-trifluormethylphenyl)-1,2,3,4,4a,10b-hexahydrophenanthridin]",8.00
17,"CCOc1cc2c(cc1OCC)[C@@H]1CCCC[C@@H]1N=C2c1ccc(C#N)cc1 (racemic) [Verbindung 18, (+/-)-cis-8,9-Diethoxy-6-(4-cyanophenyl)-1,2,3,4,4a,10b-hexahydrophenanthridin]",8.24

row,Compound,-log IC50
1,"CCOc1cc2c(cc1OCC)[C@H]1CCCC[C@H]1N=C2c1ccc(OC(F)(F)F)cc1 (racemic) [Verbindung 19, (+/-)-cis-8,9-Diethoxy-6-(4-trifluormethoxyphenyl)-1,2,3,4,4a,10b-hexahydrophenanthridin]",7.97
2,"CCOc1cc2c(cc1OC)C(c1ccc(NS(=O)(=O)c3ccc(C)cc3)cc1)=N[C@@H]1CCCC[C@H]21 (racemic) [Verbindung 20, (+/-)-cis-9-Ethoxy-8-methoxy-6-(4-p-toluolsulfonamidophenyl)-1,2,3,4,4a,10b-hexahydrophenanthridin]",9.05
3,"CCOc1cc2c(cc1OC)C(c1ccc([N+](=O)[O-])cc1)=N[C@H]1CCCC[C@@H]21 (racemic) [Verbindung 21, (+/-)-cis-9-Ethoxy-8-methoxy-6-(4-nitrophenyl)-1,2,3,4,4a,10b-hexahydrophenanthridin]",8.46
4,"CCOc1cc2c(cc1OC)C(c1ccc(S(C)(=O)=O)cc1)=N[C@H]1CCCC[C@@H]21 (racemic) [Verbindung 22, (+/-)-cis-9-Ethoxy-8-methoxy-6-(4-methansulfonylphenyl)-1,2,3,4,4a,10b-hexahydrophenanthridin]",8.66
5,"CCOc1cc2c(cc1OC)C(c1ccc(NS(=O)(=O)c3ccc(C(=O)OC)cc3)cc1)=N[C@@H]1CCCC[C@H]21 (racemic) [Verbindung 23, (+/-)-cis-9-Ethoxy-8-methoxy-6-[4-(4-methoxycarbonylphenyl)sulfonamidophenyl]-1,2,3,4,4a,10b-hexahvdrophenanthridin Hydrochlorid]",8.70
6,"CCOc1cc2c(cc1OCC)[C@@H]1CCCC[C@@H]1N=C2c1ccncc1.Cl.Cl (racemic) [Verbindung 24, (+/-)-cis-8,9-Diethoxy-6-(pyrid-4-yl)-1,2,3,4,4a,10b-hexahydrophenanthridin-dihydrochlorid]",8.08
7,"CCOc1cc2c(cc1OCC)[C@@H]1CCCC[C@@H]1N=C2c1cccnc1.Cl (racemic) [Verbindung 25, (+/-)-cis-8,9-Diethoxy-6-(pyrid-3-yl)-1,2,3,4,4a,10b-hexahydrophenanthridin-hydrochlorid]",7.96
8,"CCOc1cc2c(cc1OCC)[C@H]1CCCC[C@H]1N=C2c1ccc(Cl)nc1 (racemic) [Verbindung 26, (+/-)-cis-8,9-Diethoxy-6-(2-chiorpyrid-5-yl)-1,2,3,4,4a,10b-hexahydrophenanthridin]",8.41
9,"CCOc1cc2c(cc1OCC)[C@@H]1CCCC[C@@H]1N=C2c1ccc(O)nc1 (racemic) [Verbindung 27, (+/-)-cis-8,9-Diethoxy-6-(2-hydroxypyrid-5-yl)-1,2,3,4,4a,10b-hexahydrophenanthridin]",6.66
10,"CCOc1cc2c(cc1OC)C(c1ccc(N)cc1)=N[C@H]1CCCC[C@@H]21 (racemic) [Verbindung 29, (+/-)-cis-9-Ethoxy-8-methoxy-6-(4-aminophenyl)-1,2,3,4,4a,10b-hexahydrophenanthridin]",7.69
11,"COc1cc2c(cc1OC)[C@@H]1CCCC[C@@H]1N=C2c1ccc(N(S(=O)(=O)c2ccc([N+](=O)[O-])cc2)S(=O)(=O)c2ccc([N+](=O)[O-])cc2)cc1 (racemic) [Verbindung 30, (+/-)-cis-8,9-Dimethoxy-6-[4-bis(p-nitrophenylsulfonyl)aminophenyl]-1,2,3,4,4a,10b-hexahydrophenanthridin]",7.36
12,"COc1cc2c(cc1OC)[C@@H]1CCCC[C@@H]1N=C2c1ccc(NC(C)=O)cc1 (racemic) [Verbindung 31, (+/-)-cis-8,9-Dimethoxy-6-(4-acetamidophenyl)-1,2,3,4,4a,10b-hexahydrophenanthridin]",7.30
13,"CCOc1cc2c(cc1OC)C(c1ccc(NC(C)=O)cc1)=N[C@H]1CCCC[C@@H]21 (racemic) [Verbindung 32, (+/-)-cis-9-Ethoxy-8-methoxy-6-(4-acetamidophenyl)-1,2,3,4,4a,10b-hexahydrophenanthridin]",8.38
14,"COc1cc2c(cc1OC)[C@H]1CCCC[C@H]1N=C2c1ccc(N(S(=O)(=O)c2ccc(C)cc2)S(=O)(=O)c2ccc(C)cc2)cc1 (racemic) [Verbindung 33, (+/-)-cis-8,9-Dimethoxy-6-[4-bis(p-toluolsulfonyl)aminophenyl]-1,2,3,4,4a,10b-hexahydrophenanthridin]",7.27
15,"COc1cc2c(cc1OC)[C@H]1CCCC[C@H]1N=C2c1ccc(N(C(C)=O)S(=O)(=O)c2ccc(C)cc2)cc1 (racemic) [Verbindung 34, (+/-)-cis-8,9-Dimethoxy-6-[(N-acetyl-4-p-toluolsulfonamido)phenyl]-1,2,3,4,4a,10b-hexahydrophenanthridin]",7.42
16,"CCOc1cc2c(cc1OCC)[C@H]1CCCC[C@H]1N=C2c1ccc(N(C(C)=O)S(=O)(=O)c2ccc(C)cc2)cc1 (racemic) [Verbindung 35, (+/-)-cis-8,9-Diethoxy-6-[(N-acetyl-4-p-toluolsulfonamido]phenyl]-1,2,3,4,4a,10b-hexahydrophenanthridin]",7.81
